What all share (type): cell-based
For assay [1], the system named is Escherichia coli MC4100. The source says:
(§1) Staphylococcus aureus was strain RN6390, Pseudomonas aeruginosa was strain PA01, Escherichia coli was strain MC4100, Streptococcus faecalis was ATCC 8043 and Candida albicans was a clinical isolate from the Presbyterian Hospital.
D. Radial diffusion assay for antibiotic activity against Escherichia coli MC4100
A single colony of Escherichia coli MC4100 is inoculated into trypicase soy broth and grown to mid-exponential phase (OD600−0.7). The cultures are washed in NaPB pH 5.5 and dissolved to a final concentration of 5×10^7CFU/ml. A 0.2 ml aliquot of this bacterial suspension (10^7CFU/ml) is added to 10 ml of autoclaved and cooled (to 42° C.) NaPB containing 0.02% Bovine Serum Albumin (BSA) and 0.02% Triton X100., 1% w/v of low electroendosmosis type agarose (Sigma). After mixing the bacteria in, the agarose is poured into Lab-Tek square Petri dishes to form a uniform thick layer. Wells with a 2.7 mm diameter are punched in and filled with 4.5 ul of control or sample, the plates are incubated for 3 hours at 37° C., and overlaid with 10 ml of sterile agar maintained at 42° C. The overlay agar is 6% (w/v) TSB and 1% w/v Bacto-agar. After incubation for 18-24 hours at 37° C., the diameter of the clear zone surrounding the wells containing an antibacterial agent is measured.
(§2) Measurement of the antimicrobial activity of human hemoglobin, its heme-free α and β chains, CNBr-derived fragments of the α and β chains, and synthetic peptides derived therefrom were determined by radial diffusion assay and in some cases by plate assay. […] MIC is estimated by linear extrapolation of data points to an intercept with the x axis.
(§3) Each assay was performed with 3 experimental runs except where indicated. […] The assay method was patterned after that of Lee et al (23).

In the next assay the test system is Candida albicans. As to the method: as §1
B. Radial diffusion assay
The fungus is grown for 3 hrs from an overnight culture in Sabouraud dextrose broth, centrifuged at 10,000 g for 10 min, washed twice in NaPB pH 5.5, and resuspended in NaPB (pH 5.5) at a final concentration of 4×10^7/ml. A 0.1 ml aliquot of this fungal suspension (4×10^6 CFU) is added to 10 ml of autoclaved and cooled to (42° C.) NaPB pH 5.5 containing 1% w/v of low electroendosmosis type agarose (Sigma). After mixing the fungus in, the agar is poured into Lab-Tek square Petri dishes to form a uniform 1 mm thick layer. Wells with a 3 mm diameter are punched in and filled with 5 μl of control or sample, the plates are incubated for 3 hrs at 37° C. and overlaid with 10 ml of sterile agar maintained at 42° C. The overlay agar is 2× Sabouraud agar. After incubation of 18-24 hrs at 37° C., the diameter of the clear zone surrounding the wells containing an antifungal agent is measured.
as §2, §3

For assay [2], the system named is Streptococcus faecalis ATCC 8043. Put plainly: Radial diffusion assay for antibiotic activity against Streptococcus faecalis ATCC 8043. On the procedure: as §1
E. Radial diffusion assay for antibiotic activity against Streptococcus faecalis ATCC 8043
A single colony is inoculated in 10 mL of TSB overnight shaking at 37C. Approximately 0.3 ml is added to 10 mL fresh TSB and shaken at 37° C. This is allowed to grow to mid-log phase (OD600=0.6). The culture is washed 2× in NaPB pH 5.5 by spinning at 5000 rpm. for 10 min. OD is rechecked after washing to determine exact bacterial concentration. The washed bacteria are added at a concentration of 10^7/plate to the lower layer (NaPB pH 5.5/1% Low Electroendosmosis agarose). Dilutions of Hemoglobin dilutions in NaPB pH 5.5 are added to the plate, allowed to diffuse in the layer, and incubated in wet box at 37C for 3 hours. Following the incubation, 10 mL of nutrient medium, 6% TSB and 1% Bactoagar, is added as a top layer and plates are incubated in the wet box overnight at […].
as §2
Each assay was performed with 3 experimental runs except where indicated. The radial diffusion assay is reliable and gives consistent results when used with the purified or semipurified compositions of the invention. The assay method was patterned after that of Lee et al (23).

Assay [3] deals with Pseudomonas aeroginosa PA01. Put plainly: Radial diffusion assay for antibiotic activity against Pseudomonas aeroginosa PA01. Conditions: Pseudomonas aeruginosa. On the procedure: Staphylococcus aureus was strain RN6390, Pseudomonas aeruginosa was strain PA01, Escherichia coli was strain MC4100, Streptococcus faecalis was ATCC 8043 and Candida albicans was a clinical isolate from the Presbyterian Hospital. C. Radial diffusion assay for antibiotic activity against Pseudomonas aeroginosa PA01 A single colony of Pseudomonas aeroginosa PA01 is inoculated into trypticase soy broth and grown to mid-exponential phase (OD600−0.7). […] A 0.2 ml aliquot of this bacterial suspension (10^7CFU/ml) is added to 10 ml of autoclaved and cooled (to 42° C.) NaPB buffer, 1% w/v of low electroendosmosis type agarose (Sigma). After mixing the bacteria in, the agarose is poured in Lab-Tek square Petri dishes to form a uniform thick layer. Wells with a 2.7 mm diameter are punched in and filled with 4.5 ul of control or sample, the plates are incubated for 3 hours at 37° C., and overlaid with 10 ml of sterile agar maintained at 42° C. The overlay agar is 6% (w/v) TSB and 1% w/v Bacto-agar. After incubation for 18-24 hours at37° C., the diameter of the clear zone surrounding the wells containing an antibacterial agent is measured. Measurement of the antimicrobial activity of human hemoglobin, its heme-free α and β chains, CNBr-derived fragments of the α and β chains, and synthetic peptides derived therefrom were determined by radial diffusion assay and in some cases by plate assay. […] MIC is estimated by linear extrapolation of data points to an intercept with the x axis. Each assay was performed with 3 experimental runs except where indicated. The radial diffusion assay is reliable and gives consistent results when used with the purified or semipurified compositions of the invention. The assay method was patterned after that of Lee et al (23).

For assay [4], the system named is Staphylococcus aureus RN6390. Put plainly: Radial diffusion assay for antibiotic activity against Staphylococcus aureus RN6390. As to conditions: pH 5.5, radial diffusion. The text has this: Staphylococcus aureus was strain RN6390, Pseudomonas aeruginosa was strain PA01, Escherichia coli was strain MC4100, Streptococcus faecalis was ATCC 8043 and Candida albicans was a clinical isolate from the Presbyterian Hospital. B. Radial diffusion assay for antibiotic activity against Staphylococcus aureus RN6390 A single colony of Staphylococcus aureus RN6390 is inoculated into CYGP broth and grown to mid-exponential phase (OD600=0.7). The cultures are washed in NaPB pH 5.5 and dissolved to a final concentration of 5×10^7 CFU/ml. A 0.2 ml aliquot of this bacterial suspension (10^7 CFU) is added to 10 ml of autoclaved and cooled (to 42° C.) NaPB buffer, 1% w/v of low electroendosmosis type agarose (Sigma). After mixing the bacteria in, the agarose is poured in Lab-Tek square Petri dishes to form a uniform thick layer. Wells with a 2.7 mm diameter are punched in and filled with 4.5 ul of control or sample, the plates are incubated for 3 hours at 37° C., and overlaid with 10 ml of sterile agar maintained at 42° C. The overlay agar is 2× CYGP broth and 1% w/v Bacto-agar. After incubation for 18-24 hours at 37° C., the diameter of the clear zone surrounding the wells containing an antibacterial agent is measured. Measurement of the antimicrobial activity of human hemoglobin, its heme-free α and β chains, CNBr-derived fragments of the α and β chains, and synthetic peptides derived therefrom were determined by radial diffusion assay and in some cases by plate assay. […] MIC is estimated by linear extrapolation of data points to an intercept with the x axis. Each assay was performed with 3 experimental runs except where indicated. The radial diffusion assay is reliable and gives consistent results when used with the purified or semipurified compositions of the invention. The assay method was patterned after that of Lee et al (23).

Assay [5] relates to Escherichia coli MC4100. As to conditions: pH 7.4, radial diffusion.
The mark [6] stands for this setting: Streptococcus faecalis, pH 5.5, radial diffusion.
Where [7] appears, read: Escherichia coli, pH 5.5, radial diffusion.
Where [8] appears, read: Candida albicans, pH 5.5, radial diffusion.
The mark [9] stands for this setting: Streptacoccus faecalis, Table 2 CNBr cleavage products, pH not given in table (method NaPB pH 5.5).
The mark [10] stands for this setting: Escherichia coli, Table 2 CNBr cleavage products, pH not given in table (method NaPB pH 5.5).
Setting [11] is: Candida albicans, Table 2 CNBr cleavage products, pH not given in table (method NaPB pH 5.5).

Read-outs that look alike come from different tables or passages of the source. Marks after values point to notes of the source that are not given here. No end group written: not given here.

Consider GNPKVKAHGKKVLGAFS [Peptide I], for which the “Minimum Inhibitory Concentration (MIC)” value in the assay with Escherichia coli MC4100 [1] (MC4100, pH 5.5) was 15 µg/mL; with Candida albicans (3 h, pH 5.5), 10 µg/mL.
For “Hemoglobin: Human hemoglobin (MW=64,500), two α and two β chains with four heme groups; crude Hb purchased from Sigma Chemicals”, the “Minimum Inhibitory Concentration (MIC)” value in assay [2] (setting [6]) is 200 to 1000 µg/mL; in assay [3] (pH 5.5, radial diffusion) it was 5 µg/mL; in assay [3] (pH 7.4, radial diffusion), 50 µg/mL; with Escherichia coli MC4100 [1] (setting [7]), 1 to 5 µg/mL; in the assay on Candida albicans (setting [8]) it was 50 to 70 µg/mL; in assay [4] it was 4 to 6 µg/mL. Also, in the assay on Escherichia coli MC4100 [5], the “Minimum Inhibitory Concentration (MIC)” value lay within 35 to 100 µg/mL.
As for “α chains: Heme-free α chain of human hemoglobin, 141 amino acid residues, SEQ ID NO:10, separated by C4 reverse-phase HPLC”, the “Minimum Inhibitory Concentration (MIC)” value in assay [2] (setting [6]) was 3* μg/ml; in assay [3] (pH 5.5, radial diffusion) it was 50 µg/mL; with Escherichia coli MC4100 [1] (setting [7]) it was 1 to 2 µg/mL; in the assay with Candida albicans (setting [8]), 7 µg/mL; in assay [4], 300 µg/mL.
“α-1: CNBr cleavage fragment of human hemoglobin α chain, residues 1-32, SEQ ID NO:7”: the “Minimum Inhibitory Concentration (MIC)” value was 100 µg/mL in assay [2] (setting [9]) and more than 100 µg/mL in the assay with Escherichia coli MC4100 [1] (setting [10]).
For “α-2: CNBr cleavage fragment of human hemoglobin α chain, residues 33-76, SEQ ID NO:8”, the “Minimum Inhibitory Concentration (MIC)” value in the assay with Escherichia coli MC4100 [1] (setting [10]) was more than 100 µg/mL.
For the substance “α-3: CNBr cleavage fragment of human hemoglobin α chain, residues 77-141, SEQ ID NO:3”, the “Minimum Inhibitory Concentration (MIC)” value is 7 µg/mL in assay [2] (setting [9]), 5 to 8 µg/mL with Escherichia coli MC4100 [1] (setting [10]) and 10 to 50 µg/mL with Candida albicans (setting [11]).
For the substance “β chains: Heme-free β chain of human hemoglobin, 146 amino acid residues, SEQ ID NO:1, separated by C4 reverse-phase HPLC”, the “Minimum Inhibitory Concentration (MIC)” value in assay [2] (setting [6]) was 20 µg/mL; in assay [3] (pH 5.5, radial diffusion) it was 40 to 60 µg/mL; in the assay with Escherichia coli MC4100 [1] (setting [7]) it was 1.5 to 5 µg/mL; in the assay on Candida albicans (setting [8]), more than 50 µg/mL; in assay [4] it was 10 µg/mL; in the assay on Escherichia coli MC4100 [5], 10 to 30 µg/mL.
For “β-1: CNBr cleavage fragment of human hemoglobin β chain, residues 1-55, SEQ ID NO:9”, the results for the “Minimum Inhibitory Concentration (MIC)” value (in assay [2] (setting [9]); in the assay with Escherichia coli MC4100 [1] (setting [10]); in the assay with Candida albicans (setting [11])) were more than 50 µg/mL, more than 100 µg/mL and 25 µg/mL, respectively.
For “β-2: CNBr cleavage fragment of human hemoglobin β chain, residues 56-146, SEQ ID NO:2”, the results for the “Minimum Inhibitory Concentration (MIC)” value (in assay [2] (setting [9]); in the assay with Escherichia coli MC4100 [1] (setting [10]); with Candida albicans (setting [11])) were 8 µg/mL, 5 µg/mL and 25 µg/mL, respectively. Moreover, in the assay on Escherichia coli MC4100 [1] (E. coli), the “activity against E. coli (in words)” value is recorded as “highly active”. Further, the “activity against C. albicans (in words)” value in the assay on Candida albicans (C. albicans) is on record as “highly active”.
